# Laboratory results reported in patent US9380788B2, “Package for plant antimicrobial treatment” (priority 2013, dated 2016).
# System: pepper plants
# Type: in vivo
# Conditions: plants sprayed with oregano/sesame oil emulsion made with the emulsifier
row,Compound,Phytotoxicity on pepper plants
1,CCCCCCCC/C=C\CCCCCCCC(=O)OCCOCC(OCCO)C1OCC(OCCO)C1OCCO (stereo not shown) [Tween 80],phytotoxicity
2,CCCCCCCCCCCCOS(=O)(=O)[O-].[Na+] [SDS],phytotoxicity
3,Triton X 100 [Triton X100],phytotoxicity
4,"CCCCCCCCCCCCCCCCCC(=O)[O-].[Na+] [sodium stearate, Sodium Stearate]",very vital
